The text below walks through data of patent US20260256716A1, “COMPOSITIONS AND METHODS OF USE THEREOF” (Board of Supervisors of Louisiana State University and …, priority 2023, published 2026).

Experiment [1] deals with NAD synthesis and salvage. Put plainly: RT-PCR of NAD synthesis and salvage pathways / NAD levels. It counts as cell-based.
Experiment [2] concerns ARPE cells. Put plainly: Mitochondrial morphology by fluorescent microscopy in ARPE cells expressing mitochondrial red/green fluorescent protein. It counts as cell-based, human. The following applies: 100 nM, 50 nM or 10 nM; 48 hours post treatment. The protocol: Representative 5-HT2A Receptor Agonist, R-DOI, Increases Mitochondrial Biogenesis and Quality by Inducing Mitochondrial Fusion at low nM concentrations thereby reversing adverse processes that underlie development and progression of the Pathophysiology of Age-Associated Ocular and Neurodegenerative Diseases. ARPE cells transfected with plasmids that express either a red or green fluorescent protein biomarker that marks mitochondria were plated and treated with R-DOI @100 nM, 50 nM or 10 nM. 48 hours post treatment, mitochondrial morphology was evaluated by fluorescent microscopy.
• Fluorescent dyes limit researchers to study in a static manor due to fixation. We engineered a plasmid expressing mitochondrial localized AcGFP1/dsRed2. […]

In experiment [3] the test system is ARPE-19 cells. Put plainly: ARPE-19 proliferation (DAPI cell number, fold change in growth). It counts as cell-based, human. The conditions noted are these: ARPE-19, 72 h, R-DOI 0.1 nM or 1 nM. The method, then:
Specific 5-HT2A Receptor Activation via Model Phenethylamines, like R-DOI. […] ARPE-19 cells were plated in nutrient rich media, DMEM, containing 7% dialyzed FCS and then starved in DMEM media containing 0.5% dialyzed FCS. Cells were then changed to 7% dialyzed FCS DMEM media containing physiolocial relevant levels of serotonin at varying concentrations and grown for 72-hours. Cell numbers were determined through DNA staining with DAPI and fold change in growth was determined from baseline readings at 24-hours. To assess if agonists of the 5HT2A receptor could enhance cell health and proliferation specifically through the 5-HT2A receptor, the model 5-HT2A receptor agonist, R-DOI was added at either 0.1 nM or 1 nM. […] Also, included is a summary of physiological serotonin and 5-HT2A receptor agonist/antagonist outcomes on cellular proliferation. This increase in proliferation promotes the formation of a compact RPE-monolayer which is important for maintaining a healthy blood-retinal barrier and can occur with low dose administration of 5-HT2A receptor agonists.
ARPE-19 cells were plated in nutrient rich media, DMEM, containing 7% dialyzed FCS and then starved in DMEM media containing 0.5% dialyzed FCS. Cells were then changed to 7% dialyzed FCS DMEM media containing physiological relevant levels of serotonin at varying concentrations and grown for 72-hours. Cell numbers were determined through DNA staining with DAPI and fold change in growth was determined from baseline readings at 24-hours. To assess if serotonin enhances cell health and proliferation specifically through the 5-HT2A receptor, the 5-HT2A receptor antagonist, M100,907 at 10 nM was included during serotonin induction.

Experiment [4] deals with ARPE cells. Put plainly: Blue light induced mitochondrial fragmentation in ARPE cells (mitotracker green). It counts as cell-based, human. The following applies: 100 nM; 48 hours; hyperglycemic conditions; blue light 400 nm. The method, then:
ARPE cells grown under hyperglycemic conditions were plated and mock treated or treated with R-DOI or 2C-iBu at 100 nM. 48 hours post treatment, mitochondria in live cells were visualized by staining mitochondria with mitotracker green (green). Once stained, live ARPE cells were exposed to focused blue light at 400 nm and the ability of drugs to protect against blue light damage-induced mitochondrial fragmentation was assessed.

Experiment [5] relates to ARPE-19 cells. Description: ATP luciferase assay in ARPE-19 cells. It counts as cell-based, human.
A further experiment relates to A549 cells. Put plainly: Cell viability after cumene peroxide oxidative stress (Hoechst / propidium iodide). It counts as cell-based. The protocol: A549 cells were treated with the indicated concentrations of R-DOI (panel A) or 2C-iBu (panel B) and subsequently exposed to cumene peroxide to oxidatively stress cells. Cell viability was visualized by staining with Hoescht (Blue) to mark total cells (live plus dead) and propidium iodide (red) to mark dead cells.

The test system of another experiment is NRF-2. Put plainly: Western blot of NRF-2 expression in ARPE cells after H2O2 oxidative stress. The following applies: 1000 nM to 1 nM overnight, then H2O2, 24 hours, lower doses highest. It counts as cell-based, human. The method, then:
ARPE cells were plated and treated with 10-fold dilutions of R-DOI from 1000 nM to 1 nM. Following an overnight treatment, cells were incubated with hydrogen peroxide (H2O2) to mimic an oxidative stress induced disease event. 24 hours later, cell lysates were collected and protein levels were normalized among samples and run on a western blot for comparison of NRF-2 expression relative to a cellular protein loading control, b-actin. While doses increased protective NRF-2 expression, lower doses increased NRF-2 to the highest levels, accentuating the need for appropriate dose ranges in facilitating treatment effects.

The subject of experiment [6] is ARPE cells. Put plainly: Cumene hydroperoxide induced lipid peroxidation in ARPE cells (BODIPY). The following applies: 100 nM and 1 nM overnight; 100 uM cumene hydroperoxide. It counts as cell-based, human. The method, then: Representative 5-HT2A Receptor Agonist, R-DOI, Decreases Oxidative stress induced lipid peroxidation at low nM concentrations thereby reversing adverse processes that underlie development and progression of the Pathophysiology of Age-Associated Ocular and Neurodegenerative Diseases. ARPE cells were plated and mock treated or treated with the 5HT2A agonist R-DOI at 100 nM or 1 nM concentrations. Following an overnight incubation, live ARPE cells were labeled with an lipid peroxidation indicator dye BODIPY that changes fluorescence from red to green as it becomes oxidized. Cells were subsequently treated with 100 uM cumene hydroperoxide to induce lipid peroxidation and cellular oxidative stress and imaged in the red and green channels to assess the protective effects of 5HT2A agonists on lipid peroxidation. In the absence of 5HT2A agonists, there was a clear increase in green fluorescence present following treatment with cumene hydroperoxide.

As to `COc1cc(C[C@@H](C)N)c(OC)cc1I` (single isomer, unassigned) [R-DOI, R enantiomer 2,5-Dimethoxy-4-iodoamphetamine], the “NAD levels / NAD synthesis and salvage pathways” value in experiment [1] (higher doses) was “causes downregulation of these pathways and decreased NAD levels”; in experiment [1] (low dose) it was “increases protective NAD levels”. Further, the “mitochondrial biomass and morphology” value in the experiment with ARPE cells [2] was “increased mitochondrial biomass with a non-fragmented fused morphology”. For the same molecule, the “proliferation of RPE (fold change in growth)” value in the experiment on ARPE-19 cells [3] is “Stimulate and Restore Healthy Proliferation of RPE”. Besides, in the experiment with ARPE cells [4], the “blue light induced mitochondrial fragmentation/damage” value was “Inhibit Blue Light and Oxidative Stress Induced Mitochondrial Fragmentation/Damage”. For the same molecule, the “ATP levels relative to Mock treated ARPE-19 cells” value with ARPE-19 cells [5] (10 fold dilutions 100 nM to 0.1 nM) is recorded as “Increase Mitochondrial Function And ATP Production”. Moreover, the “production of ATP” value with ARPE-19 cells [5] (ARPE WT cells, 24 h after administration) is “enhanced production of ATP”. Besides, in the experiment on A549 cells, the “oxidative stress-induced cell death” value is “protected cells from oxidative stress-induced cell death”. In addition, the NRF-2 expression result with NRF-2 is “Increases Expression of the master regulator of antioxidant gene expression NRF-2”; in the experiment on NRF-2 (listed as (R)-DOI), “Upregulates Expression of NRF-2”. Moreover, the “oxidative stress induced lipid peroxidation” value in the experiment with ARPE cells [6] was “abrogated lipid peroxidation”.
